Data from BindingDB's records for aid1799744 (Csar, 2012).
pKi: −log10 of the molar value. Where “and” joins values, the source holds several entries; their conditions need not be identical. Equal values may be shown once.

Biological target: Mitogen-activated protein kinase 1 (Homo sapiens, UniProt P28482)
Assay: Assay 1

Chain of Mitogen-activated protein kinase 1 (P28482 whole entry): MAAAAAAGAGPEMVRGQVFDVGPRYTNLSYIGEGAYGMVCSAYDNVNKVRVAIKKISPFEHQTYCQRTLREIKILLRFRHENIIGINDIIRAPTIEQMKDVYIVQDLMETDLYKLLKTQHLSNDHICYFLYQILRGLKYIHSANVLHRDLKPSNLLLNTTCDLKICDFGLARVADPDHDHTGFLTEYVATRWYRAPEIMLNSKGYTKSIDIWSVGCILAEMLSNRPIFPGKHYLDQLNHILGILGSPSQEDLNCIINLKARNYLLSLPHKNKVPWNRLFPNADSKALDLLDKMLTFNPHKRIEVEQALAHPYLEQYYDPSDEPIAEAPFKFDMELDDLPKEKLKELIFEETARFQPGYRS

pKi | Structure (SMILES)
6.10 | CCNc1ncc(C)c(-c2c[nH]c(C(=O)NCc3ccccc3F)c2)n1 [erk000473]
7.08 | CCNc1ncc(C)c(-c2c[nH]c(C(=O)NCc3cccc(F)c3)c2)n1 [erk000474]
6.33 | CCNc1ncc(C)c(-c2c[nH]c(C(=O)NCc3ccccc3OC)c2)n1 [erk000475]
7.28 | CCNc1ncc(C)c(-c2c[nH]c(C(=O)NCc3cccc(OC)c3)c2)n1 [erk000476]
6.92 | CCNc1ncc(C)c(-c2c[nH]c(C(=O)N[C@@H](CO)c3cc(F)cc(C(F)(F)F)c3)c2)n1 [erk000478]
8.05 | CCNc1ncc(C)c(-c2c[nH]c(C(=O)N[C@@H](CO)c3cccc(F)c3)c2)n1 [erk000479]
5.82 | CCNc1ncc(C)c(-c2c[nH]c(C(=O)NCc3ccccc3O)c2)n1 [erk000480]
7.17 | CCNc1ncc(C)c(-c2c[nH]c(C(=O)NCc3cccc(O)c3)c2)n1 [erk000484]
6.37 | CCNc1ncc(C)c(-c2c[nH]c(C(=O)NCc3ccc(O)c(O)c3)c2)n1 [erk000485]
6.64 | CCNc1ncc(C)c(-c2c[nH]c(C(=O)N[C@@H](CO)c3ccccc3F)c2)n1 [erk000486]
8.40 | Cc1cnc(N[C@@H](CO)CC2CC2)nc1-c1c[nH]c(C(=O)N[C@H](CO)c2ccccc2)c1 [erk000487]
7.85 | Cc1cnc(N[C@H](CO)C(C)C)nc1-c1c[nH]c(C(=O)N[C@H](CO)c2ccccc2)c1 [erk000488]
5.72 | CCNc1ncc(C)c(-c2c[nH]c(C(=O)N[C@@H](C(C)=O)c3ccccc3)c2)n1 [erk000489]
7.89 | CCNc1ncc(C)c(-c2c[nH]c(C(=O)N[C@H](CO)c3cccc(C(F)(F)F)c3)c2)n1 [erk000491]
8.70 | Cc1cnc(NC2CC2)nc1-c1c[nH]c(C(=O)N[C@H](CO)c2cccc(C(F)(F)F)c2)c1 [erk000492]
7.54 | CONc1ncc(C)c(-c2c[nH]c(C(=O)N[C@H](CO)c3ccccc3)c2)n1 [erk000493]
8.00 | Cc1cnc(NOC(C)C)nc1-c1c[nH]c(C(=O)N[C@H](CO)c2ccccc2)c1 [erk000494]
7.49 | CC(=O)Nc1ncc(C)c(-c2c[nH]c(C(=O)N[C@H](CO)c3ccccc3)c2)n1 [erk000496]
7.85 | Cc1cnc(NC[C@H]2CCCO2)nc1-c1c[nH]c(C(=O)N[C@H](CO)c2ccccc2)c1 [erk000497]
6.19 | CCOC(=O)NNc1ncc(C)c(-c2c[nH]c(C(=O)N[C@H](CO)c3ccccc3)c2)n1 [erk000498]
7.40 | CN(C)c1sc(C#N)c2c1-c1nc(Nc3cccc(O)c3)ncc1CC2 [erk000499]
7.59 | Cc1cnc(NOCC2CC2)nc1-c1c[nH]c(C(=O)N[C@H](CO)c2ccccc2)c1 [erk000500]
7.70 | Cc1cnc(-c2ccccc2)nc1-c1c[nH]c(C(=O)N[C@H](CO)c2ccccc2)c1 [erk000501]
6.59 | Cc1ncc(C)c(-c2c[nH]c(C(=O)N[C@H](CO)c3ccccc3)c2)n1 [erk000502]
7.60 | Cc1cnc(NC#N)nc1-c1c[nH]c(C(=O)N[C@H](CO)c2ccccc2)c1 [erk000503]
7.74 | Cc1cnc(NOCCO)nc1-c1c[nH]c(C(=O)N[C@H](CO)c2ccccc2)c1 [erk000504]
8.15 | Cc1cnc(NN(C)C)nc1-c1c[nH]c(C(=O)N[C@H](CO)c2ccccc2)c1 [erk000505]

pKi | Structure (SMILES)
8.70 | CC[C@@H](CO)Nc1ncc(C)c(-c2c[nH]c(C(=O)N[C@H](CO)c3cccc(Cl)c3)c2)n1 [erk000507]
7.11 | c1ccc2c(Nc3cc(C4CC4)n[nH]3)nc(Nc3ccc4nc[nH]c4c3)nc2c1 [erk000508]
8.30 | Cc1cnc(NC(CO)CO)nc1-c1c[nH]c(C(=O)N[C@H](CO)c2ccccc2)c1 [erk000509]
9.30 | Cc1cnc(N[C@@H]2C[C@@H]2C)nc1-c1c[nH]c(C(=O)N[C@H](CO)c2ccccc2)c1 [erk000510]
8.22 | Cc1cnc(NC(C)(CO)CO)nc1-c1c[nH]c(C(=O)N[C@H](CO)c2ccccc2)c1 [erk000512]
7.29 | Cc1cnc(NC2(CO)CCCC2)nc1-c1c[nH]c(C(=O)N[C@H](CO)c2ccccc2)c1 [erk000513]
8.05 | Cc1cnc(N[C@H](CO)CC(C)C)nc1-c1c[nH]c(C(=O)N[C@H](CO)c2ccccc2)c1 [erk000514]
7.68 | Cc1cnc(N[C@H]2C[C@H]2CO)nc1-c1c[nH]c(C(=O)N[C@H](CO)c2ccccc2)c1 [erk000515]
8.70 | Cc1cnc(NC2CCCC2)nc1-c1c[nH]c(C(=O)N[C@H](CO)c2ccccc2)c1 [erk000516]
9.40 | Cc1cnc(Nc2ccccn2)nc1-c1c[nH]c(C(=O)N[C@H](CO)c2ccccc2)c1 [erk000517]
8.40 | Cc1ccnc(Nc2ncc(C)c(-c3c[nH]c(C(=O)N[C@H](CO)c4ccccc4)c3)n2)c1 [erk000518]
6.92 | Cc1cnc(NCCN2CCOCC2)nc1-c1c[nH]c(C(=O)N[C@H](CO)c2ccccc2)c1 [erk000519]
6.27 | Cc1cnc(NCC[C@@H]2CCCN2C)nc1-c1c[nH]c(C(=O)N[C@H](CO)c2ccccc2)c1 [erk000520]
7.04 | Cc1cccnc1Nc1ncc(C)c(-c2c[nH]c(C(=O)N[C@H](CO)c3ccccc3)c2)n1 [erk000521]
9.00 | Cc1cccc([C@@H](CO)NC(=O)c2cc(-c3nc(NC(C)C)ncc3C)c[nH]2)c1 [erk000522]
8.70 | Cc1cccc([C@@H](CO)NC(=O)c2cc(-c3nc(NCC(C)C)ncc3C)c[nH]2)c1 [erk000523]
8.52 | Cc1cnc(NCC(C)C)nc1-c1c[nH]c(C(=O)N[C@H](CO)c2cccc(Cl)c2)c1 [erk000525]
9.00 | Cc1cnc(Nc2cccc(C)c2C)nc1-c1c[nH]c(C(=O)N[C@H](CO)c2cccc(Cl)c2)c1 [erk000526]
8.52 | Cc1cnc(Nc2cccc(O)c2C)nc1-c1c[nH]c(C(=O)N[C@H](CO)c2ccccc2)c1 [erk000527]
6.96 and 7.22 | CCN1CCC[C@H]1CNc1ncc(C)c(-c2c[nH]c(C(=O)N[C@H](CO)c3ccccc3)c2)n1 [erk000530]
7.10 | COc1cccc(Nc2ncc(C)c(-c3c[nH]c(C(=O)N[C@H](CO)c4ccccc4)c3)n2)c1C [erk000531]
7.30 | Cc1cccc([C@@H](CO)NC(=O)c2cc(-c3nc(Nc4ccccc4N(C)C)ncc3C)c[nH]2)c1 [erk000532]
5.70 | Cc1cnc(Nc2ccccc2C#N)nc1-c1c[nH]c(C(=O)N[C@H](CO)c2ccccc2)c1 [erk000533]
8.70 | Cc1cnc(NC2CCCCC2)nc1-c1c[nH]c(C(=O)N[C@H](CO)c2ccccc2)c1 [erk000534]
6.70 | COc1cccc(Nc2ncc(C)c(-c3c[nH]c(C(=O)N[C@H](CO)c4cccc(C)c4)c3)n2)c1C [erk000535]
7.82 | Cc1cnc(NC(C)C)nc1-c1c[nH]c(C(=O)N[C@H](CO)c2cccc(F)c2)c1 [erk000536]
8.70 | Cc1cnc(Nc2cccc(F)c2C)nc1-c1c[nH]c(C(=O)N[C@H](CO)c2ccccc2)c1 [erk000538]

pKi | Structure (SMILES)
8.40 | Cc1cnc(Nc2cccc(C)c2C)nc1-c1c[nH]c(C(=O)N[C@H](CO)c2cccc(F)c2)c1 [erk000539]
8.22 | Cc1cnc(NC2CCC2)nc1-c1c[nH]c(C(=O)N[C@H](CO)c2ccccc2)c1 [erk000540]
9.00 | Cc1cnc(Nc2cccc(CO)c2C)nc1-c1c[nH]c(C(=O)N[C@H](CO)c2ccccc2)c1 [erk000541]
7.96 | Cc1cnc(NC2CC2)nc1-c1c[nH]c(C(=O)N[C@H](CO)c2cccc(F)c2)c1 [erk000542]
5.70 | Nc1nccc(-c2c[nH]c(C(=O)N(CCO)Cc3ccccc3)c2)n1 [erk000543]
7.19 | CCSc1ncc(C)c(-c2c[nH]c(C(=O)N[C@H](CO)c3ccccc3)c2)n1 [erk000544]
7.74 | CCC[C@H](C)Nc1ncc(C)c(-c2c[nH]c(C(=O)N[C@H](CO)c3ccccc3)c2)n1 [erk000546]
8.22 | CCC(CC)Nc1ncc(C)c(-c2c[nH]c(C(=O)N[C@H](CO)c3ccccc3)c2)n1 [erk000547]
7.62 | COC[C@H](C)Nc1ncc(C)c(-c2c[nH]c(C(=O)N[C@H](CO)c3ccccc3)c2)n1 [erk000548]
7.57 | CC[C@@H](COC)Nc1ncc(C)c(-c2c[nH]c(C(=O)N[C@H](CO)c3ccccc3)c2)n1 [erk000549]
7.70 | CCC[C@@H](CO)Nc1ncc(C)c(-c2c[nH]c(C(=O)N[C@H](CO)c3ccccc3)c2)n1 [erk000551]
8.30 | CSCC[C@@H](CO)Nc1ncc(C)c(-c2c[nH]c(C(=O)N[C@H](CO)c3ccccc3)c2)n1 [erk000552]
8.22 | Cc1cnc(NC2CCC(C)CC2)nc1-c1c[nH]c(C(=O)N[C@H](CO)c2ccccc2)c1 (stereo not given in full) [erk000553]
8.52 | Cc1cnc(Nc2cccc3c2CCC3)nc1-c1c[nH]c(C(=O)N[C@H](CO)c2ccccc2)c1 [erk000556]
8.40 | CC[C@@H](COC)Nc1ncc(C)c(-c2c[nH]c(C(=O)N[C@H](CO)c3cccc(Cl)c3)c2)n1 [erk000557]
8.70 | Cc1cnc(NN2CCOCC2)nc1-c1c[nH]c(C(=O)N[C@H](CO)c2cccc(Cl)c2)c1 [erk000558]
8.52 | Cc1cnc(Nc2cc(Cl)cc(Cl)c2)nc1-c1c[nH]c(C(=O)N[C@H](CO)c2ccccc2)c1 [erk000559]
7.24 | CC(=O)NCCNc1ncc(C)c(-c2c[nH]c(C(=O)N[C@H](CO)c3ccccc3)c2)n1 [erk000560]
8.40 | Cc1cnc(Nc2c(F)cccc2F)nc1-c1c[nH]c(C(=O)N[C@H](CO)c2ccccc2)c1 [erk000561]
7.57 | Cc1cnc(Nc2cccc(Br)c2C)nc1-c1c[nH]c(C(=O)N[C@H](CO)c2ccccc2)c1 [erk000562]
8.52 | Cc1ccc(Nc2ncc(C)c(-c3c[nH]c(C(=O)N[C@H](CO)c4ccccc4)c3)n2)cc1Br [erk000563]
6.82 | Cc1cnc(Nc2c(Cl)cccc2Cl)nc1-c1c[nH]c(C(=O)N[C@H](CO)c2ccccc2)c1 [erk000564]
8.52 | Cc1cnc(Nc2cccc([N+](=O)[O-])c2)nc1-c1c[nH]c(C(=O)N[C@H](CO)c2ccccc2)c1 [erk000565]
8.52 | Cc1cc(C)cc(Nc2ncc(C)c(-c3c[nH]c(C(=O)N[C@H](CO)c4ccccc4)c3)n2)c1 [erk000566]
6.65 | Cc1cnc(NCCN2CCCC2)nc1-c1c[nH]c(C(=O)N[C@H](CO)c2ccccc2)c1 [erk000568]
8.05 | Cc1cnc(Nn2cccc2)nc1-c1c[nH]c(C(=O)N[C@H](CO)c2ccccc2)c1 [erk000573]
